ChEMBL document CHEMBL1201862, “PubChem BioAssay data set” (2004)
Each block holds one compound with its values, some of them ahead of it. The source made the active and inactive calls.

Assays:
[1] = target: T1, Low molecular weight phosphotyrosine protein phosphatase (Homo sapiens, UniProt P24666); type: functional; details: read-out: IC50_Mean;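 note: Dose-response confirmation assay measuring inhibition of LMPTP enzyme activity by fluorescence intensity read-out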
T1 sequence (P24666 whole entry): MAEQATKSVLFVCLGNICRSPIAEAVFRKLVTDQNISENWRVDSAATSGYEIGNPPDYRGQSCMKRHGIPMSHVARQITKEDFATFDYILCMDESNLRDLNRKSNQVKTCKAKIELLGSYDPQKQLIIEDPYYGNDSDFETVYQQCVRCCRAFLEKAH

Escherichia coli = test: microbe, parasite or virus in culture
[2] = target: DNA (cytosine-5)-methyltransferase 1 (Homo sapiens, UniProt P26358); test: inhibition of DNA methylation by DNMT1 – biochemical, fluorescent molecular beacon, confirmation (AID 602386); type: functional
Chain of DNA (cytosine-5)-methyltransferase 1 (P26358 whole entry): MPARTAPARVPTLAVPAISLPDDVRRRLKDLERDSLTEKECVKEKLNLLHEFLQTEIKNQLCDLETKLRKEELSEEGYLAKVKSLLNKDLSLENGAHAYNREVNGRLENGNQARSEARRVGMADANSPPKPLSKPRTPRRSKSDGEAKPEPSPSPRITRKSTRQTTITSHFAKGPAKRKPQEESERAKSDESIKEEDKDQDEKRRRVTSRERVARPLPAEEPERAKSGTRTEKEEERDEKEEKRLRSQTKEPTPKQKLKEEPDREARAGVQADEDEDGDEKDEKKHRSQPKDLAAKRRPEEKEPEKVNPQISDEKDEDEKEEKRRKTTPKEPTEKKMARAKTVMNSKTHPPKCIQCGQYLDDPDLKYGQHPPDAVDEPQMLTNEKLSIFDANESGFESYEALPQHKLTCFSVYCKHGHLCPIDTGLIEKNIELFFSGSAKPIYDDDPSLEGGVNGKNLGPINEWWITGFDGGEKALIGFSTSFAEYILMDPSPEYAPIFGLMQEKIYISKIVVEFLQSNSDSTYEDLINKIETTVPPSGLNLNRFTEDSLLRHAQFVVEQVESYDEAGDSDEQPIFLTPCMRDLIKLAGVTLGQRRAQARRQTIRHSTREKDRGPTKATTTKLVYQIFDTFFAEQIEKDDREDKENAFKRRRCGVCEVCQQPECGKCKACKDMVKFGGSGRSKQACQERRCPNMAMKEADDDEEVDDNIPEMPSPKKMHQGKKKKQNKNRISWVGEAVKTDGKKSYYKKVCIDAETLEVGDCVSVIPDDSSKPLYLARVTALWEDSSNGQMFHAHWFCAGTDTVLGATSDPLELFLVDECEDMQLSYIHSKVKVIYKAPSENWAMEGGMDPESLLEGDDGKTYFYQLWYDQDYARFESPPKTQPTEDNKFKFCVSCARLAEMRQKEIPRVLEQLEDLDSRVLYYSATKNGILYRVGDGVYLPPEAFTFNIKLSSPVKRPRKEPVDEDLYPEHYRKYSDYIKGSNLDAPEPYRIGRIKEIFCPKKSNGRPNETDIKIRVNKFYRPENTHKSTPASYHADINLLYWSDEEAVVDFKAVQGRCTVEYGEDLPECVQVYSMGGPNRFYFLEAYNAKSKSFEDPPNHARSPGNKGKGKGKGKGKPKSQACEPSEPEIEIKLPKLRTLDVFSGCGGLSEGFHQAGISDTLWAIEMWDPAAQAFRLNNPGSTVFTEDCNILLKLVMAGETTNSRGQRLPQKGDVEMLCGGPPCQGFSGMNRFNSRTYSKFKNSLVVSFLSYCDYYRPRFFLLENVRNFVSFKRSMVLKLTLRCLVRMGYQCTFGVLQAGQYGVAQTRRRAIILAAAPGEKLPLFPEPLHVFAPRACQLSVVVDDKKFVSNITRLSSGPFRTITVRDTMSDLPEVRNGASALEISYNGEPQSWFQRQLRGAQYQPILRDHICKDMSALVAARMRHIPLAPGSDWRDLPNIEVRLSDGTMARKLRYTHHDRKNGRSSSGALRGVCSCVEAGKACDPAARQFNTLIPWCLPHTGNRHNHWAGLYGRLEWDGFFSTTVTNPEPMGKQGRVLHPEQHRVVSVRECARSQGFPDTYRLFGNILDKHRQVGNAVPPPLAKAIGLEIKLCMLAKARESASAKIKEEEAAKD

Melanocortin receptor 4 = Melanocortin receptor 4 (Homo sapiens, UniProt P32245); type: functional, cell-based;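 note: Cell-based assay with luminescence read-out, confirmatory dose-response testing for agonist activity of biased ligands at MC4R; human U2OS cells with tagged receptor and beta-arrestin; potency of agonists that increase receptor coupling to beta-arrestin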
Chain of Melanocortin receptor 4 (P32245 whole entry): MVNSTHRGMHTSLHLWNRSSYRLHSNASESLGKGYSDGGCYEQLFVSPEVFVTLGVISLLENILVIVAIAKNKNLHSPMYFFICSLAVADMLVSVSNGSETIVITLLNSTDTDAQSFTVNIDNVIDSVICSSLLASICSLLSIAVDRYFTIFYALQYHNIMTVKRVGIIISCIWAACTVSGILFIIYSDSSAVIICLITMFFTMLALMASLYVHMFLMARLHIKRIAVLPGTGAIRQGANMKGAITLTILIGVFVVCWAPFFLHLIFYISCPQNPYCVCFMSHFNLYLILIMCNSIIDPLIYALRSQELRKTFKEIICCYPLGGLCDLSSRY

H9c2 = test: cells; type: functional, cell-based; details: Rattus norvegicus, H9c2, Myocardium;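 note: confirmatory concentration-response retest of ultra-high-throughput screening hits for modulation of myocardial damage; cell death induced by hydrogen peroxide oxidative stress; compound pretreatment for 60 min then peroxide exposure for 2 h; potency is for protecting the cells against peroxide damage rather than for killing them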
Interleukin-8 = target: T2, Interleukin-8 (Homo sapiens, UniProt P10145); test: Dose Response confirmation of uHTS small molecule hits for cystic fibrosis induced NFkb Inhibitors in a PAF-induced IL8 counterscreen.; type: functional; details: read-out: IC50_Mean
T2 sequence (P10145 whole entry): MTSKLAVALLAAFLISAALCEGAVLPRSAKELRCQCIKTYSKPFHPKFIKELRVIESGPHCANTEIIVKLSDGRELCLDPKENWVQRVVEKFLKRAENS

[3] = target: T3, Heat shock factor protein 1 (Mus musculus, UniProt P38532); test: decrease of HSF1-responsive luciferase luminescence – cell-based, NIH3T3, dose retest, confirmation (AID 2382); type: functional;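 note: NIH3T3 fibroblasts with HSF1-driven luciferase reporter stressed by proteasome inhibitor MG132; luminescence from HSF1-driven luciferase expression after 8 hours of MG132 stress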
T3 sequence (P38532 whole entry): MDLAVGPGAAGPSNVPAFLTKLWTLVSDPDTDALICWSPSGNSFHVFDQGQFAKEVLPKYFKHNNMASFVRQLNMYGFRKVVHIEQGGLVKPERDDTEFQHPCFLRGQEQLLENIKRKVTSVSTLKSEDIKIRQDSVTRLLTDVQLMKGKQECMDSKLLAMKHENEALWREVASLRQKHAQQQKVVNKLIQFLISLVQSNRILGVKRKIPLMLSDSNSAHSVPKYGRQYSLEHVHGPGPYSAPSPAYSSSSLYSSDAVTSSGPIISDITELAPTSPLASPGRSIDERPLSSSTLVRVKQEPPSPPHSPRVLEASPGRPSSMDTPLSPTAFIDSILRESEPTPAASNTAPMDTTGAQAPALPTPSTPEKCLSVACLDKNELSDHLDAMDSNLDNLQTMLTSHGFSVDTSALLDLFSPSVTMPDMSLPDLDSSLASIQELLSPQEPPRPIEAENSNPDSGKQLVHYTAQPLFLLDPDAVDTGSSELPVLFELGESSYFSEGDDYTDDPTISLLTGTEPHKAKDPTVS

[4] = Late stage assay provider results from the probe development effort to identify inhibitors of the Plasmodium falciparum M17 Leucine Aminopeptidase (M17LAP): radiolabel-based cell-based dose response assay to identify compounds that inhibit P. falciparum growth in RBCs Set 2.; type: functional
[5] = target: T4, Apoptotic protease-activating factor 1 (Homo sapiens, UniProt O14727); test: SAR analysis of small molecule Activators of Apaf-1 in a Fluorescent assay.; type: functional; details: read-out: EC50_Mean;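 note: caspase-3 cleavage of fluorogenic Rh110 DEVD substrate downstream of apoptosome activation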
T4 sequence (O14727 whole entry): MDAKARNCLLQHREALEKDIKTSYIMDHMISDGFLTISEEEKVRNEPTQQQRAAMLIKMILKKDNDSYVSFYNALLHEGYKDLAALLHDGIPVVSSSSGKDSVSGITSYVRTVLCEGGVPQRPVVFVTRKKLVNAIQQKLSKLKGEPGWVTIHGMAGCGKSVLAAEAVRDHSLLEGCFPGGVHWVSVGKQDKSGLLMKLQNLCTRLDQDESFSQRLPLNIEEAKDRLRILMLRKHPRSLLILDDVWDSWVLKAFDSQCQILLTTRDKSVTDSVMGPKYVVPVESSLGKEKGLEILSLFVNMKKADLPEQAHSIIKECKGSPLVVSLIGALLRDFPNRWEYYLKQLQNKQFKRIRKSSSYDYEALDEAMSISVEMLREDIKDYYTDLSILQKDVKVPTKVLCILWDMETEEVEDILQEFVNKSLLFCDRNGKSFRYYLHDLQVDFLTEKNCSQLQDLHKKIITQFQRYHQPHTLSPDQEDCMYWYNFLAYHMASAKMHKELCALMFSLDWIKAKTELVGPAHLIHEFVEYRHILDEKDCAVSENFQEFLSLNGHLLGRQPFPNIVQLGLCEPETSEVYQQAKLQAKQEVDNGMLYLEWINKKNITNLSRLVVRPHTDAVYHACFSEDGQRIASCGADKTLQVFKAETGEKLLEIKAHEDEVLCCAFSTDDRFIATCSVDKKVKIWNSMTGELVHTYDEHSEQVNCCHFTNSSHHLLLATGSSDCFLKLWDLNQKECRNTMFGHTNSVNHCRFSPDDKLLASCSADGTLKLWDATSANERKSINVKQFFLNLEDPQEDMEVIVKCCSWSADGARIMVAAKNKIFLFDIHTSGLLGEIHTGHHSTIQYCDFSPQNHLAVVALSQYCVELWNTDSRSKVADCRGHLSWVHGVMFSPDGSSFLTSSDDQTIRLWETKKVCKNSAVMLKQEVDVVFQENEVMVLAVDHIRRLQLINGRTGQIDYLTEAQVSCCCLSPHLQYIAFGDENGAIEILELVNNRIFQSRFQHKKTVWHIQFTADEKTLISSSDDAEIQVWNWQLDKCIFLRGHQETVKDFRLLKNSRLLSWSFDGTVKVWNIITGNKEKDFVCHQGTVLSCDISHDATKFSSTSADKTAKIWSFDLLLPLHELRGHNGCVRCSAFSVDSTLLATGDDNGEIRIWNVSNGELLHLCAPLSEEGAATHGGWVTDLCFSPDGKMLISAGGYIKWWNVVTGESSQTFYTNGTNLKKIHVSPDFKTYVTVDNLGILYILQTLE

[6] = target: T5, Methionyl-tRNA synthetase, putative (Trypanosoma brucei brucei, UniProt Q38C91); type: functional, Trypanosoma brucei brucei strain 927/4 GUTat10.1
T5 sequence (Q38C91 whole entry): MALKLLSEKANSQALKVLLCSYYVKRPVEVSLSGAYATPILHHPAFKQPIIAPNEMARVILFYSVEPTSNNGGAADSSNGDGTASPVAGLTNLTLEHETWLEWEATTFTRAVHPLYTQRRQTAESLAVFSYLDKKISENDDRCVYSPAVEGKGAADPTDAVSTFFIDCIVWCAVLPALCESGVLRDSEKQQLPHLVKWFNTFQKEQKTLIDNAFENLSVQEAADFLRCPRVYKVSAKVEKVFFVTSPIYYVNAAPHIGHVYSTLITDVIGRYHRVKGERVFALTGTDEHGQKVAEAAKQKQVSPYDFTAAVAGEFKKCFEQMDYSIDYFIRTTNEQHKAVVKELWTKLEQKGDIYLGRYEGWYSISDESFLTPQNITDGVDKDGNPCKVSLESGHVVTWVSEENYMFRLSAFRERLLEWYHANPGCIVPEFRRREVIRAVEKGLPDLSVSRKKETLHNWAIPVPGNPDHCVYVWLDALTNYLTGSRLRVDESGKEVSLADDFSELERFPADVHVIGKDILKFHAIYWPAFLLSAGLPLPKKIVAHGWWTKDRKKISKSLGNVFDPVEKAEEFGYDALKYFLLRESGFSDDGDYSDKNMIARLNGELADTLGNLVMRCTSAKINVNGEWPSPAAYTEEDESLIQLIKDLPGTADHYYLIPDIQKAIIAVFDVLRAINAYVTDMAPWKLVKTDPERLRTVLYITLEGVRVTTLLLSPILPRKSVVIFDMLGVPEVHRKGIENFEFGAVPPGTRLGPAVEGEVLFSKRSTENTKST

[7] = Counterscreen for inhibitors of Trypanosoma brucei methionyl tRNA synthetase (MetRS): Luminescence-based cell-based high throughput dose response assay to identify compounds that are cytotoxic to Jurkat human T lymphocyte cells.; type: functional
[8] = target: T5, Methionyl-tRNA synthetase, putative; type: functional, Trypanosoma brucei brucei strain 927/4 GUTat10.1; remark: listed apart in the source
[9] = target: T6, Sentrin-specific protease 8 (Homo sapiens, UniProt Q96LD8); type: functional
T6 sequence (Q96LD8 whole entry): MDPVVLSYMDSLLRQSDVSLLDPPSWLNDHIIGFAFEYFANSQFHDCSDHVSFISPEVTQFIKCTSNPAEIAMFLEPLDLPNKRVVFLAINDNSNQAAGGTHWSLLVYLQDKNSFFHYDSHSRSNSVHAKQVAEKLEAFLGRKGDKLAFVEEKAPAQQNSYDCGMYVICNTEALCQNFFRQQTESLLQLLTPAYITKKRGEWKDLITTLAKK

[10] = target: T6, Sentrin-specific protease 8; type: functional; remark: listed apart in the source
[11] = target: T7, Ubiquitin-conjugating enzyme E2 N (Homo sapiens, UniProt P61088); type: functional;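 note: Dose-response confirmation in a TR-FRET assay detecting UBC13-driven polyubiquitin chain formation, inhibition measured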
T7 sequence (P61088 whole entry): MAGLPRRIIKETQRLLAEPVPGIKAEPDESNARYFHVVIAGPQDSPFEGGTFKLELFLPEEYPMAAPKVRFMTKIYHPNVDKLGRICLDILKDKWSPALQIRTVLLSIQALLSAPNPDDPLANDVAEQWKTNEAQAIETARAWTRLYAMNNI

SMILES: CCn1cc(C(=O)O)c(=O)c2cc(F)c(N3CCN(C(=S)NC(=O)c4ccc(F)c(F)c4)CC3)cc21
IC50 [1]: 16.6 µM (active)
AC50 (Escherichia coli): 3.38 µM (active)

IC50 [2]: 6.09 µM (active)
SMILES: CC(=O)c1cccc(OCC(=O)N(C)CC(=O)NCc2ccco2)c1

EC50 (Melanocortin receptor 4): > 89.2 µM (inactive)
SMILES: CCOc1ccc(Cn2c3ccc(OC)cc3c3nc4ccccc4nc32)cc1

SMILES: CCOc1ccc(-n2c(C)c(C(C)=O)c3cc(OC(C)=O)ccc32)cc1
IC50 (H9c2): 9.08 µM (active)
IC50 (Interleukin-8): > 79 µM (inactive)
EC50 [3]: 24.6 µM (active)

EC50 (Melanocortin receptor 4): > 89.2 µM (inactive)
SMILES: Cc1cc(C)c2sc(N(CCCN(C)C)C(=O)c3ccc(Br)s3)nc2c1

SMILES: CC(C)COc1ccc(CC(=O)NO)cc1
IC50 [4]: 7.4 µM (active)

EC50 [5]: > 100 µM (inactive)
SMILES: COC(=O)c1coc(-c2ccc(-c3ccccc3)cc2)n1

EC50 [5]: > 100 µM (inactive)
SMILES: Cc1cc(C)n(CC(C)C(=O)Nc2ccc(Cl)c(Cl)c2)n1 (stereo not drawn)

SMILES: O=C(Cc1ccc2c(c1)CCCC2)NO
IC50 [4]: 5.5 µM (active)

SMILES: O=C(CC(=O)Nc1cccc(Cl)c1)N/N=C\c1ccccc1
IC50 [6]: 6.25 µM (active)
IC50 [7]: 83.3 µM (inactive)
IC50 [8]: 3.94 µM (active)

SMILES: COc1cc2c(c(OC)c1OC)-c1ccc(O)c(=O)cc1[C@@H](N)CC2
IC50 [9]: 25.7 µM (active)
IC50 [10]: > 100 µM (inactive)
IC50 [11]: > 20 µM (inactive)
